In patent US7820640B2, “Methods for treating hearing loss” (Sound Pharmaceuticals Incorporated, priority 2002, dated 2010):
Values joined by “and” are separate entries in the source; they are usually repeats but may differ in a detail not shown here. Equal values may be shown once.

Tests used:
Format in all cases: in vivo, rat
[1] = tested on: Fisher-344 rats exposed to 110-115 dB noise at 4-16 kHz for 4 hours; experiment: ABR threshold shift after a single noise exposure (Example 1); conditions: for difference in ABR threshold shifts between control and treated rats: 4-16 kHz click stimulus, ebselen 16 mg/kg
Experimental: (§1) Noise exposure paradigm: 8-week old female Fisher-344 rats were exposed to 110-115 dB noise at 4-16 kHz for 4 hours.
Physiologic analyses: The auditory evoked brainstem response (ABR) was used to assess hearing in each ear in each animal before and after exposure to noise using equipment from Intelligent Hearings System. ABR generated with a click stimulus (broad spectrum stimulus, 4-16 kHz) was measured in 5 dB intervals. Animals were re-evaluated evaluated at 1 day, 1 week, 2 weeks, and 3 weeks post noise exposure. ABR changes measured 1 day post noise exposure are considered to represent a temporary threshold shift (TTS); ABR changes measured 3 weeks post noise exposure are considered to represent a permanent threshold shift (PTS).
(§2) Dosing of Otoprotectants: Ebselen was dissolved at 4 mg/mL in 10% DMSO and administered to rats at 16 mg/kg. N-acetyl-cysteine was dissolved at 100 mg/mL in saline and was administered to rats at 325 mg/kg. About 0.5 ml of ebselen solution or N-acetyl-cysteine solution was injected intra-peritoneally or delivered by oral gavage twice daily the day prior to, the day of, and the day following exposure to noise. Control animals were dosed on an identical schedule with vehicle (10% DMSO) only.
Statistical analysis: All experiments were performed with four rats per study group, and measuring each ear independently before and after noise exposure. Data was collected in blinded studies. Statistical analyses were performed by analysis of variance (ANOVA) between study groups.

[2] = tested on: Fisher-344 rats exposed to 110-115 dB noise at 4-16 kHz for 4 hours; experiment: ABR permanent threshold shift, ebselen and allopurinol alone or combined (Example 2); conditions: for difference in ABR threshold shifts between control and treated rats: 16 mg/kg individually, combination 8 mg/kg each, highly significant = p<0.01; for protection from both temporary and permanent thresholds shifts: ABR, rats exposed to noise, alone or in combination; for reductions in PTS compared with controls: three weeks after noise exposure, intra-peritoneal injection at 16 mg/kg individually
Experimental: Noise exposure paradigm: 8-10 week old female Fisher-344 rats were exposed to 110-115 dB noise at 4-16 kHz for 4 hours.
Physiologic analyses: ABR generated with a click stimulus (broad spectrum stimulus, 4-16 kHz), and with tone stimuli at frequencies of 4 kHz, 8 kHz, 12 kHz, and 16 kHz, was measured in 5 dB intervals, as described in EXAMPLE 1. Animals were tested before and at 3 weeks post noise exposure to assess PTS.
Dosing of compounds: Ebselen was dissolved at 4 mg/ml in 10% DMSO and allopurinol was dissolved at 4 mg/ml in water. Ebselen and allopurinol were administered to rats at an individual dose of 16 mg/kg or at a combined dose of 8 mg/kg each. About 0.5 ml of ebselen solution, allopurinol solution, or ebselen/allopurinol solution was injected intra-peritoneally or delivered by oral gavage twice daily the day prior to, the day of, and the day following exposure to noise. Control animals were dosed on an identical schedule with vehicle only.
(§3) Statistical analysis: All experiments were performed with four rats per study group, and measuring each ear independently before and after noise exposure. Data was collected in blinded studies. Statistical analyses were performed by ANOVA between study groups.

[3] = tested on: outer hair cells in cochlea of noise-exposed Fisher-344 rats; experiment: Cochlear hair cell counts after noise exposure (Example 1); conditions: for physiologic protection from noise-induced hearing loss and hair cell loss: Example 1 conclusion, ebselen 16 mg/kg, N-acetyl-cysteine 325 mg/kg
Experimental: as §1
Morphologic analyses: Hair cell counts in cochlea from test animals following noise exposure and physiologic evaluation using ABR were determined by carefully dissecting cochlea to obtain inner ear sensory epithelia. The tissues were stained with fluorescein-labeled phalloidin (specific for actin filaments, which are abundant in hair cells) and 4,6-diamidino-2-phenylindole (DAPI; specific for the DNA in the nucleus in cells). Samples were then mounted on microscope slides and viewed with epifluorescence to determine the extent of hair cell loss and retention. The correlation between physiologic data (ABR) and morphological data (hair cell counts) allows for confirmation of the protective effects of otoprotectants of the invention.
as §2

[4] = tested on: outer hair cells in cochlea of repeatedly noise-exposed Fisher-344 rats; experiment: Cochlear hair cell counts after repeated noise exposure (Example 3); conditions: 16 mg/kg
Experimental: (§4) Noise exposure paradigm: 8-week old female Fisher-344 rats were exposed to 110 dB noise at 4-16 kHz for 4 hours two times three weeks apart.
Morphologic analyses: Hair cell counts in cochlea from test animals following noise exposure and physiologic evaluation using ABR were determined as described in EXAMPLE 1.
(§5) Dosing of Ebselen: Ebselen was dissolved at 4 mg/mL in 10% DMSO and administered to rats at a dose of 16 mg/kg. About 0.5 ml of ebselen solution was injected intra-peritoneally or delivered by oral gavage twice daily the day prior to, the day of, and the day following each exposure to noise. Control animals were dosed on an identical schedule with vehicle only.

[5] = tested on: Fisher-344 rats exposed to 110 dB noise at 4-16 kHz for 4 hours two times three weeks apart; experiment: ABR threshold shift after repeated noise exposure (Example 3); conditions: 16 mg/kg; for difference in ABR threshold shifts between control and treated rats: 3 weeks after two exposures to 110 dB noise
Experimental: as §4
Physiologic analyses: ABR generated with tone stimuli at frequencies of 4 kHz, 8 kHz, 12 kHz, and 16 kHz, was measured in 5 dB intervals, as described in EXAMPLE 1. […]
as §5, §3

[6] = 1 week post noise, N-acetyl-cysteine 325 mg/kg, highly significant = p<0.01, significant = p<0.05
[7] = 2 weeks post noise, N-acetyl-cysteine 325 mg/kg, highly significant = p<0.01, significant = p<0.05
[8] = 3 weeks post noise, N-acetyl-cysteine 325 mg/kg, significant = p<0.05
[9] = 1 day post noise (115 dB, 4-16 kHz, 4 h), N-acetyl-cysteine 325 mg/kg twice daily, highly significant = p<0.01, significant = p<0.05
[10] = 4 kHz stimulus, 3 weeks after noise
[11] = click stimulus, 3 weeks after 115 dB, 4-16 kHz noise for 4 h

Structure (SMILES)	difference in ABR threshold shifts between control and treated rats [1, 6]	difference in ABR threshold shifts between control and treated rats [1, 7]	difference in ABR threshold shifts between control and treated rats [1, 8]	difference in ABR threshold shifts between control and treated rats [1, 9]	difference in ABR threshold shifts between control and treated rats [2, 10]	protection from both temporary and permanent thresholds shifts [2]	difference in ABR threshold shifts between control and treated rats [2, 11]	reductions in PTS compared with controls [2]	physiologic protection from noise-induced hearing loss and hair cell loss [3]	other results
O=c1c2ccccc2[se]n1-c1ccccc1 [ebselen, 2-phenyl-1,2-benzoisoselenazol-3(2H)-one]	highly significant	highly significant	significant	highly significant	highly significant	significant protection	highly significant	significant reductions	physiologic protection	reduction in TTS and PTS compared to control animals (fold) ([1]; click stimulus, 16 mg/kg): at least two-fold; reduction in TTS (temporary threshold shift) compared with controls ([1]; click stimulus, one day after noise exposure, 16 mg/kg): highly significant reduction; reduction in PTS (permanent threshold shift) compared with controls ([1]; click stimulus, three weeks after noise exposure, 16 mg/kg): significant reduction; PTS of a treated animal ([1]; single ebselen-treated animal, control animal 15 dB PTS): 0 dB; preservation of outer hair cells ([3]; after noise exposure, control animal had almost complete loss of outer hair cells): preservation of most outer hair cells; number of outer hair cells lost ([4]; individual rats B and D, two exposures to 110 dB noise, control rats A and C lost 401 and 246): 90 and 56; hair cell loss in cochlea compared to the control group ([4]; repeated noise exposure): less hair cell loss; difference in ABR threshold shifts between control and treated rats ([5]; 8 kHz stimulus, p<0.01): highly significant; difference in ABR threshold shifts between control and treated rats ([5]; 16 kHz stimulus, p<0.05): significant; reduction in TTS compared with controls ([5]; 1 day after repeated noise exposures): significant reduction; PTS compared to controls ([5]; three weeks after repeated noise exposures): significantly reduced
CC(=O)N[C@@H](CS)C(=O)O [N-acetyl-cysteine, N-acetyl-L-Cysteine]	significant	significant	significant	significant					physiologic protection	reduction in TTS ([1]; click stimulus, all time points after noise exposure, 325 mg/kg): significant reduction
Oc1ncnc2[nH]ncc12 [allopurinol, 4-hydroxypyrazolo[3,4-d]pyrimidine]					highly significant	significant protection	highly significant	significant reductions		difference in ABR threshold shifts between control and treated rats ([2]; 16 kHz stimulus, 3 weeks after noise): highly significant; protection from noise-induced hearing loss and hair cell loss ([2]; statement in Example 1 referring to EXAMPLE 2): provide protection
